Reference: US7378375B1, “Substituted pyridine herbicides” (Syngenta Crop Protection, Inc., priority 2000, dated 2008)

Key:
[1] = system: Monocotyledonous and dicotyledonous test plants; experiment: Herbicidal action before emergence of the plants (pre-emergence action), greenhouse pot test, 9-level rating after 4 weeks; type: in vivo; set-up: key: 9-level scale: 1 = complete damage, 9 = no effect; settings: 250 g/ha, rated after 4 weeks, 9-level scale
Description: Herbicidal Action Before Emergence of the Plants (Pre-Emergence Action)
(§1) Monocotyledonous and dicotyledonous test plants are sown in standard soil in pots. Immediately after sowing, the test substances are sprayed on at an optimum dosage (500 l of water/ha) as an aqueous suspension (prepared from a wettable powder (example F3, b) according to WO 97/34485) or emulsion (prepared from an emulsion concentrate (example F1, c) according to WO 97/34485). The test plants are then grown under optimum conditions in a greenhouse.
After a test period of 4 weeks, the test is evaluated using a 9-level scale of ratings (1=complete damage, 9=no effect). Ratings of 1 to 4 (in particular 1 to 3) mean good to very good herbicidal action.

[2] = system: Monocotyledonous and dicotyledonous test plants; experiment: Post-emergence herbicidal action, greenhouse pot test, sprayed at the 2- to 3-leaf stage, 9-level rating after 2 to 3 weeks; type: in vivo; set-up: key: 9-level scale: 1 = complete damage, 9 = no effect; settings: 250 g/ha, rated after 2 to 3 weeks, 9-level scale
Description: Post-Emergence Herbicidal Action
as §1, with “grown” for “sown”, “At the 2- to 3-leaf stage of the test plants,” for “Immediately after sowing,”, “sprayed” for “sprayed on”, “at” for “at an”, “grown further” for “grown”
After a test period of 2 to 3 weeks, the test is evaluated using a 9-level scale of rating (1=complete damage, 9=no effect). Ratings of 1 to 4 (in particular 1 to 3) mean good to very good herbicidal action.

## COCCOCc1nc(C(F)(F)F)ccc1C(=O)C1=C(O)C2CCC(C2)C1=O (stereo not drawn) [A10-B52, (H3), 4-Hydroxy-3-[2-(2-methoxyethoxymethyl)-6-trifluoromethylpyridine-3-carbonyl]-bicyclo[3.2.1]oct-3-en-2-one]
[1]
  Pre-emergence action rating, Abutilon: 1
  Pre-emergence action rating, Amaranthus: 1
  Pre-emergence action rating, Chenop.: 1
  Pre-emergence action rating, Digitaria: 1
  Pre-emergence action rating, Echino.: 1
  Pre-emergence action rating, Panicum: 1
[2]
  Post-emergence action rating, Abutilon: 1
  Post-emergence action rating, Amaranth: 2
  Post-emergence action rating, Chenop.: 1
  Post-emergence action rating, Digitaria: 1
  Post-emergence action rating, Echino.: 2
  Post-emergence action rating, Ipopur.: 2
  Post-emergence action rating, Panicum: 1
  Post-emergence action rating, Xanth.: 2

## COCCOCc1nc(C(F)(F)F)ccc1C(=O)C1=C(O)CC(C)CC1=O (stereo not drawn) [A10-B111]
[1]
  Pre-emergence action rating, Abutilon: 1
  Pre-emergence action rating, Amaranthus: 1
  Pre-emergence action rating, Digitaria: 1
  Pre-emergence action rating, Echino.: 1
  Pre-emergence action rating, Panicum: 1
[2]
  Post-emergence action rating, Abutilon: 3
  Post-emergence action rating, Amaranth: 2
  Post-emergence action rating, Chenop.: 1
  Post-emergence action rating, Digitaria: 2
  Post-emergence action rating, Echino.: 3
  Post-emergence action rating, Ipopur.: 3
  Post-emergence action rating, Panicum: 2
  Post-emergence action rating, Xanth.: 3

## COCCOCc1nc(C(F)(F)F)ccc1C(=O)c1c(C)nn(C)c1O [A10-C2 (H6), (5-Hydroxy-1,3-dimethyl-1H-pyrazol-4-yl)-[2-(2-methoxyethoxymethyl)-6-trifluoromethylpyridin-3-yl]methanone]
[1]
  Pre-emergence action rating, Abutilon: 1
  Pre-emergence action rating, Amaranthus: 2
  Pre-emergence action rating, Chenop.: 1
  Pre-emergence action rating, Digitaria: 3
  Pre-emergence action rating, Echino.: 3
  Pre-emergence action rating, Panicum: 3
[2]
  Post-emergence action rating, Abutilon: 2
  Post-emergence action rating, Amaranth: 1
  Post-emergence action rating, Chenop.: 1
  Post-emergence action rating, Digitaria: 4
  Post-emergence action rating, Echino.: 3
  Post-emergence action rating, Ipopur.: 3
  Post-emergence action rating, Panicum: 2
  Post-emergence action rating, Xanth.: 1

## COCCOCc1nc(C(F)(F)F)ccc1C(=O)c1cnn(C)c1O [A10-C5]
[1]
  Pre-emergence action rating, Abutilon: 1
  Pre-emergence action rating, Amaranthus: 1
  Pre-emergence action rating, Chenop.: 1
  Pre-emergence action rating, Digitaria: 3
  Pre-emergence action rating, Echino.: 1
  Pre-emergence action rating, Panicum: 2
[2]
  Post-emergence action rating, Abutilon: 2
  Post-emergence action rating, Amaranth: 1
  Post-emergence action rating, Chenop.: 1
  Post-emergence action rating, Digitaria: 2
  Post-emergence action rating, Echino.: 2
  Post-emergence action rating, Ipopur.: 2
  Post-emergence action rating, Panicum: 2
  Post-emergence action rating, Xanth.: 2

## COCCOCc1nc(C(F)(F)F)ccc1C(=O)c1cnn(C)c1OS(C)(=O)=O [A10-C28]
[1]
  Pre-emergence action rating, Abutilon: 1
  Pre-emergence action rating, Amaranthus: 1
  Pre-emergence action rating, Chenop.: 1
  Pre-emergence action rating, Digitaria: 3
  Pre-emergence action rating, Echino.: 2
  Pre-emergence action rating, Panicum: 1
[2]
  Post-emergence action rating, Abutilon: 3
  Post-emergence action rating, Amaranth: 2
  Post-emergence action rating, Chenop.: 1
  Post-emergence action rating, Digitaria: 4
  Post-emergence action rating, Echino.: 4
  Post-emergence action rating, Ipopur.: 3
  Post-emergence action rating, Panicum: 4
  Post-emergence action rating, Xanth.: 3

## COCCOCc1nc(C(F)(F)F)ccc1C(=O)c1cnn(C)c1OS(=O)(=O)c1ccc(C)cc1 [A10-C29]
[1]
  Pre-emergence action rating, Abutilon: 1
  Pre-emergence action rating, Amaranthus: 1
  Pre-emergence action rating, Digitaria: 2
  Pre-emergence action rating, Echino.: 1
  Pre-emergence action rating, Panicum: 2
[2]
  Post-emergence action rating, Abutilon: 2
  Post-emergence action rating, Amaranth: 2
  Post-emergence action rating, Chenop.: 1
  Post-emergence action rating, Digitaria: 3
  Post-emergence action rating, Echino.: 3
  Post-emergence action rating, Ipopur.: 1
  Post-emergence action rating, Panicum: 2
  Post-emergence action rating, Xanth.: 2

## CCOCCOCc1nc(C(F)(F)F)ccc1C(=O)C1=C(O)C2CCC(C2)C1=O (stereo not drawn) [A11-B52]
[1]
  Pre-emergence action rating, Abutilon: 1
  Pre-emergence action rating, Amaranthus: 2
  Pre-emergence action rating, Chenop.: 1
  Pre-emergence action rating, Digitaria: 1
  Pre-emergence action rating, Echino.: 1
  Pre-emergence action rating, Panicum: 1
[2]
  Post-emergence action rating, Abutilon: 2
  Post-emergence action rating, Amaranth: 1
  Post-emergence action rating, Chenop.: 1
  Post-emergence action rating, Digitaria: 1
  Post-emergence action rating, Echino.: 2
  Post-emergence action rating, Ipopur.: 2
  Post-emergence action rating, Panicum: 1
  Post-emergence action rating, Xanth.: 2

## CCOCCOCc1nc(C(F)(F)F)ccc1C(=O)c1cnn(C)c1O [A11-C5]
[1]
  Pre-emergence action rating, Abutilon: 1
  Pre-emergence action rating, Amaranthus: 1
  Pre-emergence action rating, Chenop.: 1
  Pre-emergence action rating, Digitaria: 2
  Pre-emergence action rating, Echino.: 1
  Pre-emergence action rating, Panicum: 1
[2]
  Post-emergence action rating, Abutilon: 2
  Post-emergence action rating, Amaranth: 2
  Post-emergence action rating, Chenop.: 1
  Post-emergence action rating, Digitaria: 2
  Post-emergence action rating, Echino.: 2
  Post-emergence action rating, Ipopur.: 2
  Post-emergence action rating, Panicum: 1
  Post-emergence action rating, Xanth.: 2

## CCOCCOCc1nc(C(F)(F)F)ccc1C(=O)c1cnn(C)c1OS(C)(=O)=O [A11-C28]
[1]
  Pre-emergence action rating, Abutilon: 2
  Pre-emergence action rating, Amaranthus: 1
  Pre-emergence action rating, Chenop.: 1
  Pre-emergence action rating, Digitaria: 2
  Pre-emergence action rating, Echino.: 1
  Pre-emergence action rating, Panicum: 2
[2]
  Post-emergence action rating, Abutilon: 3
  Post-emergence action rating, Amaranth: 2
  Post-emergence action rating, Chenop.: 1
  Post-emergence action rating, Digitaria: 4
  Post-emergence action rating, Echino.: 4
  Post-emergence action rating, Ipopur.: 3
  Post-emergence action rating, Panicum: 3
  Post-emergence action rating, Xanth.: 3

## C#CCOCc1nc(C(F)(F)F)ccc1C(=O)C1=C(O)C2CCC(C2)C1=O (stereo not drawn) [A18-B52]
[1]
  Pre-emergence action rating, Abutilon: 2
  Pre-emergence action rating, Amaranthus: 2
  Pre-emergence action rating, Digitaria: 1
  Pre-emergence action rating, Echino.: 1
  Pre-emergence action rating, Panicum: 1
[2]
  Post-emergence action rating, Abutilon: 1
  Post-emergence action rating, Amaranth: 1
  Post-emergence action rating, Chenop.: 1
  Post-emergence action rating, Digitaria: 1
  Post-emergence action rating, Echino.: 2
  Post-emergence action rating, Ipopur.: 2
  Post-emergence action rating, Panicum: 1
  Post-emergence action rating, Xanth.: 2

## C=CCOCc1nc(C(F)(F)F)ccc1C(=O)C1=C(O)C2CCC(C2)C1=O (stereo not drawn) [A19-B52]
[1]
  Pre-emergence action rating, Abutilon: 1
  Pre-emergence action rating, Amaranthus: 2
  Pre-emergence action rating, Digitaria: 1
  Pre-emergence action rating, Echino.: 1
  Pre-emergence action rating, Panicum: 1
[2]
  Post-emergence action rating, Abutilon: 1
  Post-emergence action rating, Amaranth: 1
  Post-emergence action rating, Chenop.: 1
  Post-emergence action rating, Digitaria: 1
  Post-emergence action rating, Echino.: 2
  Post-emergence action rating, Ipopur.: 1
  Post-emergence action rating, Panicum: 1
  Post-emergence action rating, Xanth.: 2

## CC#CCOCc1nc(C(F)(F)F)ccc1C(=O)C1=C(O)C2CCC(C2)C1=O (stereo not drawn) [A20-B52]
[1]
  Pre-emergence action rating, Abutilon: 3
  Pre-emergence action rating, Amaranthus: 3
  Pre-emergence action rating, Digitaria: 1
  Pre-emergence action rating, Echino.: 1
  Pre-emergence action rating, Panicum: 1
[2]
  Post-emergence action rating, Abutilon: 2
  Post-emergence action rating, Amaranth: 2
  Post-emergence action rating, Chenop.: 1
  Post-emergence action rating, Digitaria: 2
  Post-emergence action rating, Echino.: 2
  Post-emergence action rating, Ipopur.: 2
  Post-emergence action rating, Panicum: 1
  Post-emergence action rating, Xanth.: 2

## CC#CCOCc1nc(C(F)(F)F)ccc1C(=O)c1cnn(C)c1O [A20-C5]
[1]
  Pre-emergence action rating, Abutilon: 1
  Pre-emergence action rating, Amaranthus: 1
  Pre-emergence action rating, Chenop.: 1
  Pre-emergence action rating, Digitaria: 2
  Pre-emergence action rating, Echino.: 2
  Pre-emergence action rating, Panicum: 1
[2]
  Post-emergence action rating, Abutilon: 3
  Post-emergence action rating, Amaranth: 2
  Post-emergence action rating, Chenop.: 1
  Post-emergence action rating, Digitaria: 3
  Post-emergence action rating, Echino.: 4
  Post-emergence action rating, Ipopur.: 3
  Post-emergence action rating, Panicum: 2
  Post-emergence action rating, Xanth.: 3
